Laboratory results published in patent US20130030017A1, “QUINOLINE DERIVATIVES AS ANTIBACTERIAL AGENTS” (priority 2005, published 2013).
Converted amounts (≈) assume the structure as drawn.

Experiments:
[1] = system: Bacillus subtilis (ATCC43639); experiment: Microtitre plate assay, IC90 determination (BSU 43639); assay type: cell-based; conditions: 90% inhibitory concentration for bacterial growth, 37° C., 24 hours, resazurin fluorescence
Protocol: (§1) The bacteria used in this study were grown overnight in flasks containing 100 ml Mueller-Hinton Broth (Becton Dickinson—cat. no. 275730) in sterile de-ionized water, with shaking, at 37° C. Stocks (0.5 ml/tube) were stored at −70° C. until use. Bacteria titrations were performed in microtiter plates and colony forming units (CFUs) were determined. In general, an inoculum level of approximately 100 CFUs was used for susceptibility testing.
(§2) Flat-bottom, sterile 96-well plastic microtiter plates were filled with 180 μl of sterile deionized water, supplemented with 0.25% BSA. Subsequently, stock solutions (7.8× final test concentration) of compounds were added in 45 μl volumes in column 2 Serial five-fold dilutions (45 μl in 180 μl) were made directly in the microtiter plates from column 2 to reach column 11. Untreated control samples with (column 1) and without (column 12) inoculum were included in each microtiter plate. Depending on the bacteria type, approximately 10 to 60 CFU per well of bacteria inoculum (100 TCID50), in a volume of 100 μl in 2.8× Mueller-Hinton broth medium, was added to the rows A to H, except column 12. The same volume of broth medium without inoculum was added to column 12 in row A to H. The cultures were incubated at 37° C. for 24 hours under a normal atmosphere (incubator with open air valve and continuous ventilation). At the end of incubation, one day after inoculation, the bacterial growth was quantitated fluorometrically. Therefore resazurin (0.6 mg/ml) was added in a volume of 20 μl to all wells 3 hours after inoculation, and the plates were re-incubated overnight. A change in colour from blue to pink indicated the growth of bacteria. The fluorescence was read in a computer-controlled fluorometer (Cytofluor Biosearch) at an excitation wavelength of 530 nm and an emission wavelength of 590 nm. The % growth inhibition achieved by the compounds was calculated according to standard methods. The IC90 (expressed in μg/ml) was defined as the 90% inhibitory concentration for bacterial growth.

[2] = system: Enterococcus faecalis (ATCC29212); experiment: Microtitre plate assay, IC90 determination (EFA 29212); assay type: cell-based; conditions: 90% inhibitory concentration for bacterial growth, 37° C., resazurin fluorescence; for IC90 EFA 29212: 24 hours; for IC90: Enterococcus faecalis, ATCC29212, 24 h
Protocol: as §1, §2

[3] = system: Listeria monocytogenes (ATCC49594); experiment: Microtitre plate assay, IC90 determination (LMO 49594); assay type: cell-based; conditions: 90% inhibitory concentration for bacterial growth, 37° C., 24 hours, resazurin fluorescence
Protocol: as §1, §2

[4] = system: Pseudomonas aeruginosa (ATCC27853); experiment: Microtitre plate assay, IC90 determination (PAE 27853); assay type: cell-based; conditions: 90% inhibitory concentration for bacterial growth, 37° C., resazurin fluorescence; for IC90 PAE 27853: 24 hours; for IC90: Pseudomonas aeruginosa, ATCC27853, 24 h
Protocol: as §1, §2

[5] = system: Streptococcus pneumoniae (ATCC6305); experiment: Microtitre plate assay, IC90 determination (SPN 6305); assay type: cell-based; conditions: 90% inhibitory concentration for bacterial growth, 37° C., resazurin fluorescence; for IC90 SPN 6305: 24 hours
Protocol: as §1, §2

[6] = system: Streptococcus pyogens (ATCC8668); experiment: Microtitre plate assay, IC90 determination (SPY 8668); assay type: cell-based; conditions: 90% inhibitory concentration for bacterial growth, 37° C., resazurin fluorescence; for IC90 SPY 8668: 24 hours; for IC90: Streptococcus, ATCC8668, 24 h
Protocol: as §1, §2

[7] = system: Staphylococcus aureus (ATCC25923); experiment: Microtitre plate assay, IC90 determination (STA 25923); assay type: cell-based; conditions: 90% inhibitory concentration for bacterial growth, 37° C., 24 hours, resazurin fluorescence
Protocol: as §1
Flat-bottom, sterile 96-well plastic microtiter plates were filled with 180 μl of sterile deionized water, supplemented with 0.25% BSA. Subsequently, stock solutions (7.8× final test concentration) of compounds were added in 45 μl volumes in column 2 Serial five-fold dilutions (45 μl in 180 μl) were made directly in the microtiter plates from column 2 to reach column 11. Untreated control samples with (column 1) and without (column 12) inoculum were included in each microtiter plate. […] At the end of incubation, one day after inoculation, the bacterial growth was quantitated fluorometrically. […] The fluorescence was read in a computer-controlled fluorometer (Cytofluor Biosearch) at an excitation wavelength of 530 nm and an emission wavelength of 590 nm. The % growth inhibition achieved by the compounds was calculated according to standard methods. […]

[8] = system: Staphylococcus aureus (ATCC29213); experiment: Microtitre plate assay, IC90 determination (STA 29213); assay type: cell-based; conditions: 90% inhibitory concentration for bacterial growth, 37° C., resazurin fluorescence; for IC90 STA 29213: 24 hours
Protocol: as §1, §2

[9] = system: methicilline resistant Staphylococcus aureus (MRSA) (a clinical isolate from the University of Antwerp); experiment: Microtitre plate assay, IC90 determination (STA RMETH); assay type: cell-based; conditions: 90% inhibitory concentration for bacterial growth, 37° C., 24 hours, resazurin fluorescence
Protocol: as §1, §2

Compound	IC90 BSU 43639 [1]	IC90 EFA 29212 [2]	IC90 LMO 49594 [3]	IC90 PAE 27853 [4]	IC90 SPN 6305 [5]	IC90 SPY 8668 [6]	IC90 STA 25923 [7]	IC90 STA 29213 [8]	IC90 STA RMETH [9]	IC90 [2]	IC90 [4]	IC90 ([5]; Streptococcus pneumoniae, ATCC6305, 24 h)	IC90 ([8]; Staphylococcus aureus, ATCC29213, 24 h)	melting point	IC90 [6]	IC90 [3]	IC90 [9]
COc1nc2ccc(Br)cc2cc1C(c1ccccc1)C(O)(CCc1ccccc1)CCN(C)C (racemic) [Compound 14]	13.4 mg/L (≈ 25.1 µM)	9.5 mg/L (≈ 17.8 µM)	10.6 mg/L (≈ 19.9 µM)	9.5 mg/L (≈ 17.8 µM)	42.4 mg/L (≈ 79.5 µM)	10.6 mg/L (≈ 19.9 µM)	11.9 mg/L (≈ 22.3 µM)	13.4 mg/L (≈ 25.1 µM)	13.4 mg/L (≈ 25.1 µM)								
COc1nc2ccc(Br)cc2cc1C(c1ccccc1)C(O)(CCc1ccccc1)CCN(C)C (racemic) [Compound 15]	10.6 mg/L (≈ 19.9 µM)	4.8 mg/L (≈ 9 µM)	2.1 mg/L (≈ 3.94 µM)	4.8 mg/L (≈ 9 µM)	7.5 mg/L (≈ 14.1 µM)	4.2 mg/L (≈ 7.87 µM)	4.8 mg/L (≈ 9 µM)	4.8 mg/L (≈ 9 µM)	10.6 mg/L (≈ 19.9 µM)								
COc1nc2ccc(Br)cc2cc1C(c1ccccc1)C(O)(CCc1ccc(F)cc1)CCN(C)C (racemic) [Compound 50]	9.8 mg/L (≈ 17.8 µM)	1.7 mg/L (≈ 3.08 µM)	8.7 mg/L (≈ 15.8 µM)	1.7 mg/L (≈ 3.08 µM)	0.4 mg/L (≈ 0.725 µM)	1.7 mg/L (≈ 3.08 µM)		1.7 mg/L (≈ 3.08 µM)	8.7 mg/L (≈ 15.8 µM)								
COc1nc2ccc(Br)cc2cc1C(c1ccccc1)C(O)(CCc1ccc(F)c(F)c1)CCN(C)C (racemic) [Compound 51]		10.1 mg/L (≈ 17.7 µM)		9.0 mg/L (≈ 15.8 µM)	0.4 mg/L (≈ 0.702 µM)	5.7 mg/L (≈ 10 µM)		1.8 mg/L (≈ 3.16 µM)	11.4 mg/L (≈ 20 µM)								
COc1nc2ccc(Br)cc2cc1C(c1ccccc1)C(O)(CCc1ccc(C)cc1)CCN(C)C (racemic) [Compound 53]		6.9 mg/L (≈ 12.6 µM)		3.9 mg/L (≈ 7.12 µM)	1.7 mg/L (≈ 3.1 µM)	1.7 mg/L (≈ 3.1 µM)		1.7 mg/L (≈ 3.1 µM)	13.8 mg/L (≈ 25.2 µM)								
COc1nc2ccc(C)cc2cc1C(c1ccccc1)C(O)(CCc1ccccc1)CCN(C)C (stereo not shown) [Compound 1]						7.4 mg/L (≈ 15.8 µM)				37.2 mg/L (≈ 79.4 µM)	18.7 mg/L (≈ 39.9 µM)	1.9 mg/L (≈ 4.05 µM)	9.4 mg/L (≈ 20.1 µM)	142 °C			
COc1nc2cccc(Br)c2cc1C(c1ccccc1)C(O)(CCc1ccccc1)CCN(C)C (stereo not shown) [Compound 5]					4.8 mg/L (≈ 9 µM)			23.8 mg/L (≈ 44.6 µM)		53.4 mg/L (≈ 100 µM)	53.4 mg/L (≈ 100 µM)			156 °C	42.4 mg/L (≈ 79.5 µM)		
COc1nc2ccc(Br)cc2cc1C(c1ccccc1)C(O)(CCc1cccc2ccccc12)CCN(C)C (stereo not shown) [Compound 8]					11.6 mg/L (≈ 19.9 µM)			1.9 mg/L (≈ 3.26 µM)		1.9 mg/L (≈ 3.26 µM)	2.3 mg/L (≈ 3.94 µM)			160 °C	1.9 mg/L (≈ 3.26 µM)	1.9 mg/L (≈ 3.26 µM)	1.9 mg/L (≈ 3.26 µM)
COc1ccc(CCC(O)(CCN(C)C)C(c2ccc(Cl)cc2)c2cc3cc(Br)ccc3nc2OC)cc1 (stereo not shown) [Compound 21]		1.9 mg/L (≈ 3.18 µM)		1.9 mg/L (≈ 3.18 µM)	2.1 mg/L (≈ 3.51 µM)	1.9 mg/L (≈ 3.18 µM)		1.9 mg/L (≈ 3.18 µM)						142 °C			
CSc1nc2ccc(C)cc2cc1C(c1ccccc1)C(O)(CCc1ccccc1)CCN(C)C (stereo not shown) [Compound 29]					7.7 mg/L (≈ 15.9 µM)			48.5 mg/L (≈ 100 µM)						180 °C			
